Laboratory results: patent US5939583A, “Substituted 4-biphenyl-4-hydroxybutyric acid derivatives as matrix metalloprotease inhibitors” (Bayer Corporation, priority 1997, dated 1999)

Key:
[1] = biological target: T1, Human recombinant gelatinase B (MMP-9) (Homo sapiens, UniProt P14780); format: biochemical; details: P218 6 μM, pH 6.5, 25 min, 37° C.
T1 construct: made in house; host or cells: baculovirus protein expression system
Description: P218 Fluorogenic Substrate
(§1) MMP Microfluorometric Profiling Assay.

[2] = biological target: T2, Human Recombinant gelatinase A (MMP-2) (Homo sapiens, UniProt P08253); format: biochemical; details: P218 6 μM, pH 6.5, 25 min, 37° C.
T2 sequence (P08253 110-660): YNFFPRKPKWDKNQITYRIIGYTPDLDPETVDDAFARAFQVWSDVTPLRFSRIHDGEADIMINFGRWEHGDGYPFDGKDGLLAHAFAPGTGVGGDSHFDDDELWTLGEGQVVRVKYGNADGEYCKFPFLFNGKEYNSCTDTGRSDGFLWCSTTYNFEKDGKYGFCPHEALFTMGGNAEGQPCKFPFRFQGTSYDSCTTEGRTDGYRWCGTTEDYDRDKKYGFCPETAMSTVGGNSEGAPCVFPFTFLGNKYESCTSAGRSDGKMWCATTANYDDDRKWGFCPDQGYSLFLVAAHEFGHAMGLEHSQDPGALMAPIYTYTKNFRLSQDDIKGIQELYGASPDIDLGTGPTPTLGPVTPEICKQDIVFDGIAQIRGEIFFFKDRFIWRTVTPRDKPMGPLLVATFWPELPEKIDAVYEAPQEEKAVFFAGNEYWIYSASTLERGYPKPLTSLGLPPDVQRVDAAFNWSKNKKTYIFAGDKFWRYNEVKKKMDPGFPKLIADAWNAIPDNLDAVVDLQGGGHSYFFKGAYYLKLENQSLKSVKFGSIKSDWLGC

[3] = biological target: T3, Recombinant Human CHO Stromelysin (MMP-3) (Homo sapiens, UniProt P08254); format: biochemical; details: P218 6 μM, pH 6.5, 25 min, 37° C.
T3 construct: made in house; host or cells: CHO
T3 sequence (P08254 100-477): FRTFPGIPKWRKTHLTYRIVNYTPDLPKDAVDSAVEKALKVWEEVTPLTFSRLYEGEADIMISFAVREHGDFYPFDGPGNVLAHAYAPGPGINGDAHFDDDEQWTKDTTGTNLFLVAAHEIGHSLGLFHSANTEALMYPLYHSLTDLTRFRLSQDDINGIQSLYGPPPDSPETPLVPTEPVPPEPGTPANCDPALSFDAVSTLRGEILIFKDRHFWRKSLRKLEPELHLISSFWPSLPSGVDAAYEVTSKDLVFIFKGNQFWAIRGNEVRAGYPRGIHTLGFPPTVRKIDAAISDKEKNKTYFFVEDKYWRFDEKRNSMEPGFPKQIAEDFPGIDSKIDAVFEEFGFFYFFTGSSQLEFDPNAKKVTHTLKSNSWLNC
Description: The reaction was stopped by addition of soybean trypsin inhibitor (SBTI; 5:1 w/w to trypsin concentration).
as §1

MMP-3 = details: WO 9615096 examples; cited from earlier work
[4] = Stability of hydroxy acids as solids and in aged solutions (spontaneous lactonization); format: physicochemical; details: for stability as solids: purified crystalline hydroxy acids
Description: This was evidenced by the chemical shift of H-4 on the 4S lactone at δ5.40 ppm and that on the 4R lactone at δ5.65 ppm. The hydroxy acid that converted to the 2S, 4R lactone was thus identified as the 2S, 4R hydroxy acid (Example 1) and that which converted to the 2S, 4S lactone was identified as the 2S, 4S hydroxy acid (Example 2).

[5] = test system: human ovarian carcinoma xenografts; details: mice bearing human ovarian carcinoma xenografts; cited from earlier work

T1 sequence (P14780 107-707 limits assumed): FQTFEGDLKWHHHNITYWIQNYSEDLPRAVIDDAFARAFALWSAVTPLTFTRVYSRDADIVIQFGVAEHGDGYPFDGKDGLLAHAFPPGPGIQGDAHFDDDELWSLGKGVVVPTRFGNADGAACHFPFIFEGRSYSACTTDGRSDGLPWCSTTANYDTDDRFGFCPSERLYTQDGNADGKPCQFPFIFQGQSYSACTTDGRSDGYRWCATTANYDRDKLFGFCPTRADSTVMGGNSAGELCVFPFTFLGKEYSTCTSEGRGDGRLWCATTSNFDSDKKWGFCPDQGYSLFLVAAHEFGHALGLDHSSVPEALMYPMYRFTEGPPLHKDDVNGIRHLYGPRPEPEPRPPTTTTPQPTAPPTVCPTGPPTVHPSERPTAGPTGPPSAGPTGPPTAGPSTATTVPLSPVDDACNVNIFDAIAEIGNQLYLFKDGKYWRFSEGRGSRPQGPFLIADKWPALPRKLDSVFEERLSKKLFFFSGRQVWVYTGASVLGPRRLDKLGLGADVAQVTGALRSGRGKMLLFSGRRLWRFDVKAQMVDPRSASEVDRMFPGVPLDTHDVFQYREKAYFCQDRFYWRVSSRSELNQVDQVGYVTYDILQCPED

Structure (SMILES) | IC50 [1] [nM] | IC50 [2] [nM] | IC50 [3] [nM] | other results
O=C(C[C@H](CSc1ccccc1)C(=O)O)c1ccc(-c2ccc(Cl)cc2)cc1 | 492 | 20 | – | –
O=C(C[C@H](CSc1ccc(O)cc1)C(=O)O)c1ccc(-c2ccc(Cl)cc2)cc1 | 115 | 3 | 155 | –
O=C(C[C@H](CCCc1ccccc1)C(=O)O)c1ccc(-c2ccc(Cl)cc2)cc1 | 209 | 34 | 108 | –
CC(C)CC(CC(O)c1ccc(-c2ccc(Cl)cc2)cc1)C(=O)O (single isomer, unassigned) [Example 33] | – | – | – | potency as MMP-3 inhibitors relative to corresponding 4-biphenyl-4-oxobutyric acid derivatives (MMP-3): less potent
CC(C)CC(CC(O)c1ccc(-c2ccc(Cl)cc2)cc1)C(=O)O (single isomer, unassigned) [Example 34] | – | – | – | potency as MMP-3 inhibitors relative to corresponding 4-biphenyl-4-oxobutyric acid derivatives (MMP-3): less potent
O=C(O)[C@@H](CCCc1ccccc1)CC(O)c1ccc(-c2ccc(Cl)cc2)cc1 (single isomer, unassigned) [drawing 38] | 82 | 9.4 | 50 | –
O=C(O)[C@@H](CCCc1ccccc1)CC(O)c1ccc(-c2ccc(Cl)cc2)cc1 (single isomer, unassigned) [drawing 39] | 369 | 46 | 1200 | –
O=C(O)[C@@H](CSc1ccccc1)C[C@@H](O)c1ccc(-c2ccc(Cl)cc2)cc1 [Example 1, [2S, 4R]-4-[4-(4-chlorophenyl)phenyl]-4R-hydroxy-2-(phenylthiomethyl)butanoic acid] | – | – | – | spontaneous lactonization in aged solutions [4]: slowly showed one or other of the lactones as a result of spontaneous lactonization; stability as solids [4]: relatively stable as solids
O=C(O)[C@@H](CSc1ccccc1)C[C@H](O)c1ccc(-c2ccc(Cl)cc2)cc1 [Example 2, [2S, 4S]-4-[4-(4-chlorophenyl)phenyl]-4-hydroxy-2-(phenylthiomethyl)butanoic acid] | – | – | – | spontaneous lactonization in aged solutions [4]: slowly showed one or other of the lactones as a result of spontaneous lactonization; stability as solids [4]: relatively stable as solids
CNC(=O)[C@H](Cc1ccccc1)NC(=O)[C@H](CC(C)C)[C@H](CSc1cccs1)C(=O)NO [batimastat] | – | – | – | survival [5]: prolongs the survival
O=C(O)[C@@H](CSc1ccccc1)C[C@@H](O)c1ccc(-c2ccc(Cl)cc2)cc1 [drawing 35] | 58 | 2.8 | 34 | –
O=C(O)[C@@H](CSc1ccccc1)C[C@H](O)c1ccc(-c2ccc(Cl)cc2)cc1 [drawing 36] | 890 | 62 | 1550 | –
